Experimental findings from US20250114345A1, “COMPOUNDS AND COMPOSITIONS AS CBP/P300 DEGRADERS AND USES THEREOF” (Oncopia Therapeutics, Inc. d/b/a/ SK Life Science Labs, priority 2023, published 2025) are described below.

By Dmax is commonly meant the largest share of the target that was removed. High values mean deep degradation, low ones shallow degradation. One may read the DC50 as the midpoint of the concentration-degradation curve. Higher therefore signals degradation only at high concentration.

For one experiment, the target named is T1, p300 (Homo sapiens, UniProt Q09472).
T1 construct: host or cells: A549 P300 HiBit cells
Put plainly: P300 degradation, HiBit technology in A549 P300 HiBit cells (2 h). It is filed as cell-based. The settings on record: 2 hrs post treatment; for Dmax: A549, A549 P300 HiBit cells; for DC50: A549 P300 HiBit cells. A digest of the protocol:
(§1)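 Cells: A549 HiBiT-tagged lines, 0.2×10^4/well, F-12K + 10% HI-FBS, equilibrated overnight. Tx: serial dilution of cpd (10 mM DMSO stock). Readout: HiBiT lytic reagent, 10 min RT shaking, luminescence → potency, Dmax.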
Background: The HiBiT peptide binds its large partner to form an active luciferase.

For another experiment, the target named is T2, CBP (Homo sapiens, UniProt Q92793).
T2 construct: host or cells: A549 CBP HiBit cells
The experiment can be described thus: CBP degradation, HiBit technology in A549 CBP HiBit cells (24 h). The settings on record: 24 hrs post treatment. It is filed as cell-based. A digest of the protocol: as §1

Some results are limits rather than exact numbers.

T1 sequence (Q09472 whole entry): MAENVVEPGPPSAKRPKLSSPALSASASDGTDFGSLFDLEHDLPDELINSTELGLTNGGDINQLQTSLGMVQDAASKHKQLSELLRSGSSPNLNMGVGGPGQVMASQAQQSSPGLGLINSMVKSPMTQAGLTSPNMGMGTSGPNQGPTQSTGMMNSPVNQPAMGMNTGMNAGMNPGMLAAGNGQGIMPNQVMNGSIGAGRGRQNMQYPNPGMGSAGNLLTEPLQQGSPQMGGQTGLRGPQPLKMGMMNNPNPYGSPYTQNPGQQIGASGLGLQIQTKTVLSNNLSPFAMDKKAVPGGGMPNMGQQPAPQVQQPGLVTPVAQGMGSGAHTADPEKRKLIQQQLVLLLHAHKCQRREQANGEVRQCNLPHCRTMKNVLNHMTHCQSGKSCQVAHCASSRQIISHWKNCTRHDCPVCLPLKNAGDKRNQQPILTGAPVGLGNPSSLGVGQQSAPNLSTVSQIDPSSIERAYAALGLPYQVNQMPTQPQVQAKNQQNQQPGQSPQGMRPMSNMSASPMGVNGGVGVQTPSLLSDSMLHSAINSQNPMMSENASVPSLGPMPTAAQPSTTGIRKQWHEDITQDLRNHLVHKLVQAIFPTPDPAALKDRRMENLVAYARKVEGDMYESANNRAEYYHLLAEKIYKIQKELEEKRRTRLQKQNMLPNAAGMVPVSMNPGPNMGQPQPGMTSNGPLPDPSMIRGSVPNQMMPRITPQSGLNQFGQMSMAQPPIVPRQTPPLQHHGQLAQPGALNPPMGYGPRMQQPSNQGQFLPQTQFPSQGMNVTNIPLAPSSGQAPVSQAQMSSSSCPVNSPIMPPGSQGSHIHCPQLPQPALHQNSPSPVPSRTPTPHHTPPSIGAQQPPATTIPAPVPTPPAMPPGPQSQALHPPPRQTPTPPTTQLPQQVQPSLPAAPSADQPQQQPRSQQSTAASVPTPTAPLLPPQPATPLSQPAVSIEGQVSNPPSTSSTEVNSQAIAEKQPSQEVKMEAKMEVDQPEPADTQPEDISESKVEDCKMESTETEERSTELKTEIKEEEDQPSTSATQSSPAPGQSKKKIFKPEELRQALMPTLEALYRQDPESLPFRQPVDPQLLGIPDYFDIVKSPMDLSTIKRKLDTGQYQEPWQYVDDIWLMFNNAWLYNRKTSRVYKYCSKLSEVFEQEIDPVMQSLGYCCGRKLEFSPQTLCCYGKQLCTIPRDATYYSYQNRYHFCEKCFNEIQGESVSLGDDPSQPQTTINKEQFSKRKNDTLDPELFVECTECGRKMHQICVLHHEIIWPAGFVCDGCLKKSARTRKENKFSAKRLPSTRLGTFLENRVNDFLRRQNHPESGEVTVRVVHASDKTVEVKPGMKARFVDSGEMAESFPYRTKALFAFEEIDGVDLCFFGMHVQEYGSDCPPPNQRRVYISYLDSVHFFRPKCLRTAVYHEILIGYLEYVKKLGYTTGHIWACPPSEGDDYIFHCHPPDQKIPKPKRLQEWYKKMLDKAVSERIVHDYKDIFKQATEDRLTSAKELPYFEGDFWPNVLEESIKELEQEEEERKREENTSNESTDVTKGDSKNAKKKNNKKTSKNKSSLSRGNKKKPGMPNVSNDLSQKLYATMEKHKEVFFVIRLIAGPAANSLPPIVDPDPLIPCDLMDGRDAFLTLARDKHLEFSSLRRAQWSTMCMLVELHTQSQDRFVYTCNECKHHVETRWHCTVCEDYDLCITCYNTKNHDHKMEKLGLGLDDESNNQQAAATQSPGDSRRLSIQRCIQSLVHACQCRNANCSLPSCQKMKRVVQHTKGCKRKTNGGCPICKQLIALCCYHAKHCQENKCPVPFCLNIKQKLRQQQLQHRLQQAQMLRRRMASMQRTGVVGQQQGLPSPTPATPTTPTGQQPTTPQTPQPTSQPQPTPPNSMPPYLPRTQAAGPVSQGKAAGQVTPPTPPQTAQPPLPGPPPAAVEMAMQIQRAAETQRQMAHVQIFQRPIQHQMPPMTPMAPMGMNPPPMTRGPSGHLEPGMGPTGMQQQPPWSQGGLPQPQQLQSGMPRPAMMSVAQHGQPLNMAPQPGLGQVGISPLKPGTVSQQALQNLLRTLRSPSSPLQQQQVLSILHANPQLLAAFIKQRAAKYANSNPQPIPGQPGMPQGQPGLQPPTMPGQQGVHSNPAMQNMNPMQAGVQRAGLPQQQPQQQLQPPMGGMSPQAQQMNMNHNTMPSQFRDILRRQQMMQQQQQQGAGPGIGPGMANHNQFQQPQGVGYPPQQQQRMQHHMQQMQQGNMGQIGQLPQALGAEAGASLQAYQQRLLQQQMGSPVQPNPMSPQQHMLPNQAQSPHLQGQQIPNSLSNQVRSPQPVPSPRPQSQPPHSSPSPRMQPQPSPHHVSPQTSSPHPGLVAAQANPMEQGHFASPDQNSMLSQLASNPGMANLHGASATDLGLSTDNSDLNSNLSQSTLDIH
T2 sequence (Q92793 whole entry): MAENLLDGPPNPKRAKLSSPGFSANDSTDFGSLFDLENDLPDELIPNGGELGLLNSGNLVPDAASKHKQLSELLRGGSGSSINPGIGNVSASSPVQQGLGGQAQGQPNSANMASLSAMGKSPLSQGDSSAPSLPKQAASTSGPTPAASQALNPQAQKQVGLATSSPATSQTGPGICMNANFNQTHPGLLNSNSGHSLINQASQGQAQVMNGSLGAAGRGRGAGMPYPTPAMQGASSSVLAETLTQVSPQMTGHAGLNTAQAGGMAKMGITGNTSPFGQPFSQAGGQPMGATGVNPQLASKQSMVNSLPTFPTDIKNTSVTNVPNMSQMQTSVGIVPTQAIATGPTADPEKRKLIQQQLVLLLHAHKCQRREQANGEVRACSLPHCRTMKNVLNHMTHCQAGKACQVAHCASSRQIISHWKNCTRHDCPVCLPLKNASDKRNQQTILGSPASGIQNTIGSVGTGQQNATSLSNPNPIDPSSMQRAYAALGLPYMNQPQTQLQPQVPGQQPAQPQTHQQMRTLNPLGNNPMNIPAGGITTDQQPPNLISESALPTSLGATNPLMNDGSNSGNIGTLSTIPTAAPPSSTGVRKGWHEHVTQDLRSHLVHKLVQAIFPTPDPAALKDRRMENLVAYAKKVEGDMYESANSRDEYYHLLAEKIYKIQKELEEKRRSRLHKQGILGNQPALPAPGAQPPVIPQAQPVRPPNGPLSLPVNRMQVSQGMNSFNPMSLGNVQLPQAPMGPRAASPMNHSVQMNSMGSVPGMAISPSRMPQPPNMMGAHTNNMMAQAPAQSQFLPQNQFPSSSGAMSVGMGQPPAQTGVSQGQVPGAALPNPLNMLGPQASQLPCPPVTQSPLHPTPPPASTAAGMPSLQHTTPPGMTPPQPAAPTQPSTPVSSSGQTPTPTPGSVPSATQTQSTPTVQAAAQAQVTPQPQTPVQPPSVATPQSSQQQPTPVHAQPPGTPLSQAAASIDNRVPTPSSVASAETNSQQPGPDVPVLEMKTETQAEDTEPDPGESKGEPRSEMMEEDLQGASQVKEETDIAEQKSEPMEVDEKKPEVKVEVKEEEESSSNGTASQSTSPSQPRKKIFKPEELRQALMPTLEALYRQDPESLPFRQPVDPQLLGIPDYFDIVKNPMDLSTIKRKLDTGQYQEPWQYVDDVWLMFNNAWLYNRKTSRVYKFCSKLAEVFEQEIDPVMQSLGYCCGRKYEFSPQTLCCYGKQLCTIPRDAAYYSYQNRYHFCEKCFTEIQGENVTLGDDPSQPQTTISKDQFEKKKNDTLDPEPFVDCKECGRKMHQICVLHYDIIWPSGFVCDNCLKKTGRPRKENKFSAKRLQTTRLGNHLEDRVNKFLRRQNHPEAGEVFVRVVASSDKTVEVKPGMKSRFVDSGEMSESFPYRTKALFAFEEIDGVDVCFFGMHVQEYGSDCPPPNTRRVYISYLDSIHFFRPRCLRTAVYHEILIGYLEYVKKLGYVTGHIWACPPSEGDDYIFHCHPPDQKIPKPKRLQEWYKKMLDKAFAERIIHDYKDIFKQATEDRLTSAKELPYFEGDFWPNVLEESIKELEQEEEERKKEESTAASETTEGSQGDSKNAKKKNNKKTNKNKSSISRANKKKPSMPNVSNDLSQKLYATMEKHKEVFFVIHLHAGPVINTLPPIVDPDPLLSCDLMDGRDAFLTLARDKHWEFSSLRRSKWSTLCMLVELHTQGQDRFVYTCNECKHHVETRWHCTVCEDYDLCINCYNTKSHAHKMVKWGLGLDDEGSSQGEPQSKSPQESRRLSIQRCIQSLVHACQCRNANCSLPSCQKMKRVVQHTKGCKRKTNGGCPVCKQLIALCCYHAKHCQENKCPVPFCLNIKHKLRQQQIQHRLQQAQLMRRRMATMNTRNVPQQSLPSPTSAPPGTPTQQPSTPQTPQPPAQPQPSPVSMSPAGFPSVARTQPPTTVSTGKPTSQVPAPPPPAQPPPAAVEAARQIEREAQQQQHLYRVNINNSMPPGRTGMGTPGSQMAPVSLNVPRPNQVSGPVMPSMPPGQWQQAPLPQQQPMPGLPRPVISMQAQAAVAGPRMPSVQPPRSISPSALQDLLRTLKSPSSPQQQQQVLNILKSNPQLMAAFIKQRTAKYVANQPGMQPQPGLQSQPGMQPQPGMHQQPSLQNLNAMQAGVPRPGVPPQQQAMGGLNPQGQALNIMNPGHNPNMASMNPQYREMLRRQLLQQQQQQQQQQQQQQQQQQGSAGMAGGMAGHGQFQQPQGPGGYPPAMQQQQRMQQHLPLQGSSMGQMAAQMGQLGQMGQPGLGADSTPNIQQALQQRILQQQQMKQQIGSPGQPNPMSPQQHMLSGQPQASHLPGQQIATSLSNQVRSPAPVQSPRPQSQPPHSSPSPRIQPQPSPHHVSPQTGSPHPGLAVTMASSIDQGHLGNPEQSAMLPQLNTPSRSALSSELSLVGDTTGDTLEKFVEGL

For the compound `Cc1cc2c(N3CCCc4nc(-c5ccc(C(=O)NCC#Cc6nc7cccc(C8CCC(=O)NC8=O)n7n6)nc5)ncc43)cc(C3CCOCC3)cc2n(C)c1=O` (centres unmarked) [Example B156, 5-(5-(1,3-dimethyl-2-oxo-7-(tetrahydro-2H-pyran-4-yl)-1,2-dihydroquinolin-5-yl)-5,6,7,8-tetrahydropyrido[3,2-d]pyrimidin-2-yl)-N-(3-(5-(2,6-dioxopiperidin-3-yl)-[1,2,4]triazolo [1,5-a]pyridin-2-yl)prop-2-yn-1-yl) picolinamide], at p300, the maximal degradation (Dmax) lay in the range of 20 to 39% and the half-maximal degradation concentration (DC50) is 10 to 99 nM. At CBP, this compound came in with a DC50 of over 1000 nM and a Dmax of under 20%.

With `Cc1cc2c(N3CCCc4nc(-c5ccc(C(=O)NCC#Cc6cc7c(C8CCC(=O)NC8=O)nccc7o6)nc5)ncc43)cc(C(C)C)cc2n(C)c1=O` (centres unmarked) [Example B157, N-(3-(4-(2,6-dioxopiperidin-3-yl)furo[3,2-c]pyridin-2-yl)prop-2-yn-1-yl)-5-(5-(7-isopropyl-1,3-dimethyl-2-oxo-1,2-dihydroquinolin-5-yl)-5,6,7,8-tetrahydropyrido[3,2-d]pyrimidin-2-yl) picolinamide], on p300, the Dmax was over 80% and the DC50 lay in the range of 1 to 9.9 nM. On CBP, this compound yielded a DC50 of 10 to 99 nM and a Dmax of 20 to 39%.

At p300, `Cc1cc2c(N3CCCc4nc(-c5ccc(C(=O)NCC#Cc6cc7c(C8CCC(=O)NC8=O)cccc7o6)nc5)ncc43)cc(C3CC4CCC(C3)O4)nc2n(C)c1=O` (centres unmarked) [Example B159, 5-(5-(2-(8-oxabicyclo[3.2.1]octan-3-yl)-6,8-dimethyl-7-oxo-7,8-dihydro-1,8-naphthyridin-4-yl)-5,6,7,8-tetrahydropyrido[3,2-d]pyrimidin-2-yl)-N-(3-(4-(2,6-dioxopiperidin-3-yl)benzofuran-2-yl)prop-2-yn-1-yl)picolinamide] yielded a Dmax of over 80% and a DC50 of 1 to 9.9 nM. On CBP, the DC50 is 100 to 999 nM and the Dmax was in the range of 20 to 39%.

On to `Cc1cc2c(-c3cn(C)c(=O)c4cc(-c5ccc(C(=O)NCC#Cc6cc7c(C8CCC(=O)NC8=O)cccc7o6)nc5)ncc34)cc(C3CCOCC3)nc2n(C)c1=O` (centres unmarked) [Example B160, 5-(8-(6,8-dimethyl-7-oxo-2-(tetrahydro-2H-pyran-4-yl)-7,8-dihydro-1,8-naphthyridin-4-yl)-6-methyl-5-oxo-5,6-dihydro-2,6-naphthyridin-3-yl)-N-(3-(4-(2,6-dioxopiperidin-3-yl)benzofuran-2-yl)prop-2-yn-1-yl)picolinamide], for which, at p300, the Dmax was over 80% and the DC50 is 1 to 9.9 nM. At CBP, this compound displayed a DC50 of over 1000 nM and a maximal degradation (Dmax) of under 20%.

On p300, `Cc1cc2c(N3CCCc4nc(-c5ccc(C(=O)NCC#Cc6cc7c(C8CCC(=O)NC8=O)cccc7o6)nc5)ncc43)cc(C3CCC3)cc2n(C)c1=O` (centres unmarked) [Example B161, 5-(5-(7-cyclobutyl-1,3-dimethyl-2-oxo-1,2-dihydroquinolin-5-yl)-5,6,7,8-tetrahydropyrido [3,2-d]pyrimidin-2-yl)-N-(3-(4-(2,6-dioxo-piperidin-3-yl)benzofuran-2-yl)prop-2-yn-1-yl)picolinamide] displayed a maximal degradation (Dmax) of over 80% and a DC50 of 1 to 9.9 nM. On CBP, this compound registered a DC50 of over 1000 nM and a Dmax of under 20%.

Consider `Cc1cc2c(N3CCCc4nc(-c5ccc(C(=O)NCC#Cc6cc7c(C8CCC(=O)NC8=O)cccc7o6)nc5)ncc43)nc(N3CCC(C)(O)CC3)cc2n(C)c1=O` (centres unmarked) [Example B162, N-(3-(4-(2,6-dioxopiperidin-3-yl)benzofuran-2-yl)prop-2-yn-1-yl)-5-(5-(7-(4-hydroxy-4-methylpiperidin-1-yl)-1,3-dimethyl-2-oxo-1,2-dihydro-1,6-naphthyridin-5-yl)-5,6,7,8-tetrahydropyrido[3,2-d]pyrimidin-2-yl) picolinamide], for which the Dmax was over 80% on p300 and under 20% on CBP. Also, the DC50 at p300 was 1 to 9.9 nM; at CBP, over 1000 nM.

On p300, `Cc1cc2c(N3CCCc4nc(-c5ccc(C(=O)NCC#Cc6cc7c(C8CCC(=O)NC8=O)cccc7o6)nc5)ncc43)cc(C3COC3)nc2n(C)c1=O` (centres unmarked) [Example B163, 5-(5-(6,8-dimethyl-2-(oxetan-3-yl)-7-oxo-7,8-dihydro-1,8-naphthyridin-4-yl)-5,6,7,8-tetrahydropyrido[3,2-d]pyrimidin-2-yl)-N-(3-(4-(2,6-dioxopiperidin-3-yl)benzofuran-2-yl)prop-2-yn-1-yl)picolinamide] displayed a Dmax of over 80% and a DC50 of under 1 nM. Also, at CBP, the DC50 is over 1000 nM and the Dmax is under 20%.

For `Cc1cc2c(N3CCCc4nc(-c5ccc(C(=O)NCC#Cc6cc7c(C8CCC(=O)NC8=O)cccc7o6)nc5)ncc43)cc(C3CCC3)nc2n(C)c1=O` (centres unmarked) [Example B164, 5-(5-(2-cyclobutyl-6,8-dimethyl-7-oxo-7,8-dihydro-1,8-naphthyridin-4-yl)-5,6,7,8-tetra-hydropyrido[3,2-d]pyrimidin-2-yl)-N-(3-(4-(2,6-dioxopiperidin-3-yl)benzofuran-2-yl)prop-2-yn-1-yl)picolinamide], at p300, the greatest degradation seen (Dmax) is over 80% and the 50% degradation concentration (DC50) was in the range of 10 to 99 nM. At CBP, this compound yielded a DC50 of over 1000 nM and a Dmax of under 20%.

As to `Cc1cc(-c2ncc3c(n2)CCCN3c2cc(C3CCOCC3)cc3c2cc(C)c(=O)n3C)cnc1C(=O)NCC#Cc1cc2c(C3CCC(=O)NC3=O)cccc2s1` (centres unmarked) [Example B165, 5-(5-(1,3-dimethyl-2-oxo-7-(tetrahydro-2H-pyran-4-yl)-1,2-dihydroquinolin-5-yl)-5,6,7,8-tetrahydropyrido[3,2-d]pyrimidin-2-yl)-N-(3-(4-(2,6-dioxopiperidin-3-yl)benzo[b]thiophen-2-yl)prop-2-yn-1-yl)-3-methylpicolinamide], on p300, the greatest degradation seen (Dmax) is over 80% and the DC50 is 1 to 9.9 nM. At CBP, this compound showed a DC50 of 10 to 99 nM and a Dmax of 20 to 39%.

On p300, `Cc1cc2c(N3CCOc4nc(-c5ccc(C(=O)NCC#Cc6cc7c(C8CCC(=O)NC8=O)cccc7o6)nc5)ncc43)cc(C3CCOCC3)nc2n(C)c1=O` (centres unmarked) [Example B166, 5-(5-(6,8-dimethyl-7-oxo-2-(tetrahydro-2H-pyran-4-yl)-7,8-dihydro-1,8-naphthyridin-4-yl)-6,7-dihydro-5H-pyrimido[4,5-b][1,4]oxazin-2-yl)-N-(3-(4-(2,6-dioxopiperidin-3-yl)benzofuran-2-yl)prop-2-yn-1-yl) picolinamide] yielded a Dmax of 60 to 79% and a DC50 of 1 to 9.9 nM. On CBP, the half-maximal degradation concentration (DC50) is over 1000 nM and the maximal degradation (Dmax) is under 20%.

On p300, `Cc1cc(-c2cc3cccc(-c4nc(N5CCOCC5)cc5c4cc(C)c(=O)n5C)c3cn2)cnc1C(=O)NCC#Cc1cc2c(C3CCC(=O)NC3=O)cccc2o1` (centres unmarked) [Example B167, 5-(8-(1,3-dimethyl-7-morpholino-2-oxo-1,2-dihydro-1,6-naphthyridin-5-yl)isoquinolin-3-yl)-N-(3-(4-(2,6-dioxopiperidin-3-yl)benzofuran-2-yl)prop-2-yn-1-yl)-3-methylpicolinamide] showed a Dmax of over 80% and a DC50 of 1 to 9.9 nM. For the same compound, on CBP, the DC50 was in the range of 1 to 9.9 nM and the Dmax was in the range of 60 to 79%.

In the case of `Cc1cc2c(N3CCCc4nc(-c5ccc(C(=O)NCC#Cc6cc7c(C8CCC(=O)NC8=O)cccc7o6)nc5)ncc43)nc(N3CC(C)(O)C3)cc2n(C)c1=O` (centres unmarked) [Example B168, N-(3-(4-(2,6-dioxopiperidin-3-yl)benzofuran-2-yl)prop-2-yn-1-yl)-5-(5-(7-(3-hydroxy-3-methylazetidin-1-yl)-1,3-dimethyl-2-oxo-1,2-dihydro-1,6-naphthyridin-5-yl)-5,6,7,8-tetrahydropyrido[3,2-d]pyrimidin-2-yl) picolinamide], at p300, the maximal degradation (Dmax) is over 80% and the half-maximal degradation concentration (DC50) is under 1 nM. On CBP, this compound came in with a 50% degradation concentration (DC50) of over 1000 nM and a Dmax of under 20%.

At p300, `Cc1cc2c(N3CCCc4cc(-c5ccc(C(=O)NCC#Cc6cc7c(C8CCC(=O)NC8=O)cccc7o6)nc5)ncc43)cc(C3CCOCC3)nc2n(C)c1=O` (centres unmarked) [Example B169, 5-(1-(6,8-dimethyl-7-oxo-2-(tetrahydro-2H-pyran-4-yl)-7,8-dihydro-1,8-naphthyridin-4-yl)-1,2,3,4-tetrahydro-1,7-naphthyridin-6-yl)-N-(3-(4-(2,6-dioxopiperidin-3-yl)benzofuran-2-yl)prop-2-yn-1-yl)picolinamide] came in with a Dmax of over 80% and a DC50 of under 1 nM. Further, on CBP, the half-maximal degradation concentration (DC50) lay within 1 to 9.9 nM and the maximal degradation (Dmax) lay within 40 to 59%.

`CNC(=O)c1c[nH]c2ccc(-c3cccc4cc(-c5ccc(C(=O)NCC#Cc6ccc7occ(C8CCC(=O)NC8=O)c7c6)nc5)ncc34)cc12` (centres unmarked) [Example C1, 5-(3-(6-((3-(3-(2,6-dioxopiperidin-3-yl)benzofuran-5-yl)prop-2-yn-1-yl)carbamoyl)pyridin-3-yl)isoquinolin-8-yl)-N-methyl-1H-indole-3-carboxamide]: the figures for the Dmax on p300 and at CBP were over 80% and under 20%, respectively. For the same compound, the 50% degradation concentration (DC50) at p300 is 1 to 9.9 nM; on CBP, over 1000 nM.
